# Key:
# Assay type in all cases: functional
# [1] = system: Staphylococcus aureus; assay: Antimicrobial activity against daptomycin-non-susceptible Staphylococcus aureus 5008 incubated anaerobically at 37 degC for 48 hrs by agar dilution method; settings: Staphylococcus aureus, 5008, 48 h
# [2] = system: Staphylococcus aureus; assay: Antimicrobial activity against daptomycin-non-susceptible Staphylococcus aureus 5034 incubated anaerobically at 37 degC for 48 hrs by agar dilution method; settings: Staphylococcus aureus, 5034, 48 h
# [3] = system: Staphylococcus aureus; assay: Antimicrobial activity against daptomycin-non-susceptible Staphylococcus aureus 5080 incubated anaerobically at 37 degC for 48 hrs by agar dilution method; settings: Staphylococcus aureus, 5080, 48 h
# [4] = system: Clostridioides difficile; assay: Antimicrobial activity against daptomycin-resistant Clostridium difficile ATCC 43596 infected in Syrian golden hamster model of Clostridium difficile-associated diarrhea assessed as protection against microbial infection by measuring survival at day 25 to 26 at 0.5 mg/kg treated once daily for 5 consecutive days starting 4 hrs after spore inoculation
# [5] = system: Staphylococcus aureus; assay: Potency index, ratio of MIC for daptomycin to MIC for test compound against daptomycin-non-susceptible Staphylococcus aureus 5008 incubated anaerobically at 37 degC for 48 hrs by agar dilution method
# [6] = system: Staphylococcus aureus; assay: Antimicrobial activity against daptomycin-non-susceptible Staphylococcus aureus 5005 incubated anaerobically at 37 degC for 48 hrs by agar dilution method; settings: Staphylococcus aureus, 5005, 48 h
# [7] = system: Staphylococcus aureus; assay: Potency index, ratio of MIC for daptomycin to MIC for test compound against daptomycin-non-susceptible Staphylococcus aureus 5076 incubated anaerobically at 37 degC for 48 hrs by agar dilution method
# [8] = system: Staphylococcus aureus; assay: Potency index, ratio of MIC for daptomycin to MIC for test compound against daptomycin-non-susceptible Staphylococcus aureus 42 incubated anaerobically at 37 degC for 48 hrs by agar dilution method
# [9] = system: Staphylococcus aureus; assay: Potency index, ratio of MIC for daptomycin to MIC for test compound against daptomycin-non-susceptible Staphylococcus aureus 5063 incubated anaerobically at 37 degC for 48 hrs by agar dilution method
# [10] = system: Staphylococcus aureus; assay: Antimicrobial activity against daptomycin-non-susceptible Staphylococcus aureus 42 incubated anaerobically at 37 degC for 48 hrs by agar dilution method; settings: Staphylococcus aureus, 42, 48 h
# [11] = system: Clostridioides difficile; assay: Antimicrobial activity against vancomycin-resistant Clostridium difficile
# [12] = system: Staphylococcus aureus; assay: Antimicrobial activity against daptomycin-non-susceptible Staphylococcus aureus 1145 incubated anaerobically at 37 degC for 48 hrs by agar dilution method; settings: Staphylococcus aureus, 1145, 48 h
# [13] = system: Staphylococcus aureus; assay: Potency index, ratio of MIC for daptomycin to MIC for test compound against daptomycin-non-susceptible Staphylococcus aureus 5003 incubated anaerobically at 37 degC for 48 hrs by agar dilution method
# [14] = system: Staphylococcus aureus; assay: Antimicrobial activity against daptomycin-non-susceptible Staphylococcus aureus 5012 incubated anaerobically at 37 degC for 48 hrs by agar dilution method; settings: Staphylococcus aureus, 5012, 48 h
# [15] = system: Enterococcus faecalis; assay: Antimicrobial activity against daptomycin-resistant Enterococcus faecalis ATCC 49452 incubated anaerobically at 37 degC for 48 hrs by agar dilution method; settings: ATCC 49452, 48 h
# [16] = system: Staphylococcus aureus; assay: Potency index, ratio of MIC for daptomycin to MIC for test compound against daptomycin-non-susceptible Staphylococcus aureus 1326 incubated anaerobically at 37 degC for 48 hrs by agar dilution method
# [17] = system: Staphylococcus aureus; assay: Antimicrobial activity against daptomycin-non-susceptible Staphylococcus aureus 5003 incubated anaerobically at 37 degC for 48 hrs by agar dilution method; settings: Staphylococcus aureus, 5003, 48 h
# [18] = system: Staphylococcus aureus; assay: Antimicrobial activity against daptomycin-non-susceptible Staphylococcus aureus 5081 incubated anaerobically at 37 degC for 48 hrs by agar dilution method; settings: Staphylococcus aureus, 5081, 48 h
# [19] = system: Staphylococcus aureus; assay: Potency index, ratio of MIC for daptomycin to MIC for test compound against daptomycin-non-susceptible Staphylococcus aureus 5091 incubated anaerobically at 37 degC for 48 hrs by agar dilution method
# [20] = system: Staphylococcus aureus; assay: Antimicrobial activity against daptomycin-non-susceptible Staphylococcus aureus 5014 incubated anaerobically at 37 degC for 48 hrs by agar dilution method; settings: Staphylococcus aureus, 5014, 48 h
# [21] = system: Staphylococcus aureus; assay: Antimicrobial activity against daptomycin-non-susceptible Staphylococcus aureus 5076 incubated anaerobically at 37 degC for 48 hrs by agar dilution method; settings: Staphylococcus aureus, 5076, 48 h
# [22] = system: Prevotella sp.; assay: Toxicity against Prevotella spp. assessed as inhibition of microbe growth
# [23] = system: Staphylococcus aureus; assay: Potency index, ratio of MIC for daptomycin to MIC for test compound against daptomycin-non-susceptible Staphylococcus aureus 5017 incubated anaerobically at 37 degC for 48 hrs by agar dilution method
# [24] = system: Staphylococcus aureus; assay: Antimicrobial activity against daptomycin-non-susceptible Staphylococcus aureus 5091 incubated anaerobically at 37 degC for 48 hrs by agar dilution method; settings: Staphylococcus aureus, 5091, 48 h
# [25] = system: Staphylococcus aureus; assay: Potency index, ratio of MIC for daptomycin to MIC for test compound against daptomycin-non-susceptible Staphylococcus aureus 5080 incubated anaerobically at 37 degC for 48 hrs by agar dilution method
# [26] = system: Staphylococcus aureus; assay: Antimicrobial activity against daptomycin-non-susceptible Staphylococcus aureus 1179 incubated anaerobically at 37 degC for 48 hrs by agar dilution method; settings: Staphylococcus aureus, 1179, 48 h
# [27] = system: Staphylococcus aureus; assay: Potency index, ratio of MIC for daptomycin to MIC for test compound against daptomycin-non-susceptible Staphylococcus aureus 1616 incubated anaerobically at 37 degC for 48 hrs by agar dilution method
# [28] = system: Staphylococcus aureus; assay: Antimicrobial activity against daptomycin-non-susceptible Staphylococcus aureus 1616 incubated anaerobically at 37 degC for 48 hrs by agar dilution method; settings: Staphylococcus aureus, 1616, 48 h
# [29] = system: Staphylococcus aureus; assay: Antimicrobial activity against daptomycin-non-susceptible Staphylococcus aureus 5059 incubated anaerobically at 37 degC for 48 hrs by agar dilution method; settings: Staphylococcus aureus, 5059, 48 h
# [30] = system: Staphylococcus aureus; assay: Antimicrobial activity against daptomycin-non-susceptible Staphylococcus aureus 1146 incubated anaerobically at 37 degC for 48 hrs by agar dilution method; settings: Staphylococcus aureus, 1146, 48 h
structure (smiles),measurement,setting,value
CCCCCc1ccc(/C(C)=C/C(=O)N[C@@H](Cc2c[nH]c3ccccc23)C(=O)N[C@H](CC(N)=O)C(=O)N[C@@H](CC(=O)O)C(=O)N[C@@H]2C(=O)NCC(=O)N[C@@H](CCCN)C(=O)N[C@@H](CC(=O)O)C(=O)N[C@H](C)C(=O)N[C@@H](CC(=O)O)C(=O)NCC(=O)N[C@H](CO)C(=O)N[C@@H]([C@@H](C)CC(=O)O)C(=O)N[C@@H](CC(=O)c3ccccc3N)C(=O)O[C@@H]2C)cc1,MIC,[1],0.5 µg/mL
same,MIC,[2],0.5 µg/mL
same,MIC,[3],1 µg/mL
same,survival at 0.5 mg/kg,[4],100%
same,Ratio,[5],2
same,MIC,[6],1 µg/mL
same,Ratio,[7],2
same,Ratio,[8],2
same,Ratio,[9],2
same,MIC,[10],0.125 µg/mL
same,MIC,[11],0.125 µg/mL
same,MIC,[12],0.25 µg/mL
same,Ratio,[13],2
same,MIC,[14],0.25 µg/mL
same,MIC,[15],4 µg/mL
same,Ratio,[16],2
same,MIC,[17],0.25 µg/mL
same,MIC,[18],1 µg/mL
same,Ratio,[19],2
same,MIC,[20],0.25 µg/mL
same,MIC,[21],0.5 µg/mL
same,MIC,[22],≥ 8190 µg/mL
same,Ratio,[23],2
same,MIC,[24],0.5 µg/mL
same,Ratio,[25],2
same,MIC,[26],0.25 µg/mL
same,Ratio,[27],2
same,MIC,[28],2 µg/mL
same,MIC,[29],1 µg/mL
same,MIC,[30],0.25 µg/mL

# Reference: ChEMBL document CHEMBL3576778, “Structure-Activity Relationship Studies of a Series of Semisynthetic Lipopeptides Leading to the Discovery of Surotomycin, a Novel Cyclic Lipopeptide Being Developed for the Treatment of Clostridium difficile-Associated Diarrhea” (J Med Chem, 2015)
